Reference: patent US20230015823A1, “METHODS OF ADMINISTERING VOXELOTOR” (Global Blood Therapeutics, Inc., priority 2019, published 2023)
“Also recorded” adds a separate entry of the source.

How the values were obtained:
CYP2B6 = CYP2B6 (Homo sapiens, UniProt P20813); test: In vitro studies: CYP2B6; type: in vitro ADME
BCRP = BCRP (Homo sapiens, UniProt Q9UNQ0); test: In vitro transporter studies: BCRP; type: in vitro ADME
CYP3A4 = CYP3A4 (Homo sapiens, UniProt P08684); test: Metabolism (in vitro and in vivo studies); type: in vitro ADME; conditions: minor contribution from CYP2C19, CYP2B6 and CYP2C9
Sequence of CYP3A4 (P08684 whole entry): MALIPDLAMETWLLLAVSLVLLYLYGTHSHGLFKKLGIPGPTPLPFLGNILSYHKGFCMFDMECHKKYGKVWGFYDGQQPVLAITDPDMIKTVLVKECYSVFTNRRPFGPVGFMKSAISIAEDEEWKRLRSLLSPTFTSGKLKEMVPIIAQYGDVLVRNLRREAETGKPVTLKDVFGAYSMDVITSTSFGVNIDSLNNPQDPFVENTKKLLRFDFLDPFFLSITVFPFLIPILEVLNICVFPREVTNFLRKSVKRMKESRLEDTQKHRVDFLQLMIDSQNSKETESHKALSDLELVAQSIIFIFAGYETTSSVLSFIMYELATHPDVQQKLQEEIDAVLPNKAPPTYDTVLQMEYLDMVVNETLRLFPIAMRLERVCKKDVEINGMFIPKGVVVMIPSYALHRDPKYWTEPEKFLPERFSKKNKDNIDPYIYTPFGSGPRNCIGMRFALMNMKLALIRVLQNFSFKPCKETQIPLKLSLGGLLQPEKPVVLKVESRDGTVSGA
Excerpt: In vitro and in vivo studies indicate that voxelotor is extensively metabolized through Phase I (oxidation and reduction), Phase II (glucuronidation) and combinations of Phase I and II metabolism.

[1] = Phase 1 hepatic impairment study: safety evaluation (TEAEs); type: in vivo
Excerpt: This was a Phase 1, multiple-center, nonrandomized, open-label, parallel group study of a single oral dose of voxelotor administered in subjects with mild (Child-Pugh A; score 5 to 6 points), moderate (Child-Pugh B; score 7 to 9 points), or severe (Child-Pugh C; score 10 to 15 points) hepatic impairment and subjects with normal hepatic function. This study was designed to assess the effects of mild, moderate, or severe hepatic impairment on the PK of a single oral dose of voxelotor. Routine safety assessments (AE monitoring, vital signs, physical examinations, clinical laboratory tests, and ECGs) were performed.
Eligible subjects received a single oral dose of voxelotor 1500 mg (5×300-mg capsules) on Day 1 (for normal hepatic function, mild and moderate hepatic impairment). A lower dose of voxelotor 600 mg (2×300-mg capsules) was administered for the subjects with severe hepatic impairment.
Adverse events and concomitant medication use were monitored throughout the study. Safety assessments, including physical examinations, vital signs assessments, 12-lead ECGs, and clinical laboratory tests, were performed. Whole blood and plasma concentrations of voxelotor were determined using validated assays.
All statistical analyses were performed using the safety population. All AEs were coded to SOC and PT using MedDRA (Version 19.0) and presented by subject in data listings. A treatment-emergent AE was defined as an AE that was not present prior to treatment with study drug, but appeared following treatment or was present at treatment initiation but worsened during treatment. An AE that was present at treatment initiation but resolved and then reappeared while the subject was on treatment was a TEAE (regardless of the intensity of the AE when the treatment was initiated). Programmatically, an AE was classified as a TEAE if the start date and time occurred on or after the start date and time of first study drug dosing. The overall incidence of TEAEs (number and percentage of subjects) as well as the number of events were summarized by hepatic function group, severity, SAEs, causally related TEAE and SAEs, TEAEs leading to study or treatment discontinuation, life-threatening SAEs, and SAEs resulting in death.
The TEAEs were summarized and tabulated at both the subject (number [%] of subjects) and event (number of events) level: (1) by hepatic function group, SOC, and PT; (2) by hepatic function group, SOC, PT, and maximum reported severity; and (3) by hepatic function group, SOC, PT, and maximum relationship to study drug.

[2] = Probe substrate study in healthy subjects: voxelotor exposure and safety; type: in vivo, human; conditions: alone and in combination with caffeine, warfarin sodium, omeprazole and midazolam hydrochloride
Description: (§1) During Period 1, subjects received a single dose of caffeine 100 mg, warfarin sodium 10 mg+vitamin K 10 mg, omeprazole 20 mg, and midazolam hydrochloride 2 mg on Day 1. During Period 2, subjects received voxelotor 900 mg QD on Days 1 and 2 followed by 600 mg QD on Day 3, a single dose of caffeine 100 mg, warfarin sodium 10 mg+vitamin K 10 mg, omeprazole 20 mg, and midazolam hydrochloride 2 mg on Day 4, and voxelotor 600 mg QD on Days 4 through 7.
(§2) Whole blood and plasma concentrations of voxelotor and plasma concentrations of caffeine, paraxanthine, S-warfarin, omeprazole, 5-hydroxyomeprazole, midazolam, and 1-hydroxymidazolam were determined using validated assays.

OATP1B3 = OATP1B3 (Homo sapiens, UniProt Q9NPD5); test: In vitro transporter studies: OATP1B3; type: in vitro ADME
Sequence of OATP1B3 (Q9NPD5 whole entry): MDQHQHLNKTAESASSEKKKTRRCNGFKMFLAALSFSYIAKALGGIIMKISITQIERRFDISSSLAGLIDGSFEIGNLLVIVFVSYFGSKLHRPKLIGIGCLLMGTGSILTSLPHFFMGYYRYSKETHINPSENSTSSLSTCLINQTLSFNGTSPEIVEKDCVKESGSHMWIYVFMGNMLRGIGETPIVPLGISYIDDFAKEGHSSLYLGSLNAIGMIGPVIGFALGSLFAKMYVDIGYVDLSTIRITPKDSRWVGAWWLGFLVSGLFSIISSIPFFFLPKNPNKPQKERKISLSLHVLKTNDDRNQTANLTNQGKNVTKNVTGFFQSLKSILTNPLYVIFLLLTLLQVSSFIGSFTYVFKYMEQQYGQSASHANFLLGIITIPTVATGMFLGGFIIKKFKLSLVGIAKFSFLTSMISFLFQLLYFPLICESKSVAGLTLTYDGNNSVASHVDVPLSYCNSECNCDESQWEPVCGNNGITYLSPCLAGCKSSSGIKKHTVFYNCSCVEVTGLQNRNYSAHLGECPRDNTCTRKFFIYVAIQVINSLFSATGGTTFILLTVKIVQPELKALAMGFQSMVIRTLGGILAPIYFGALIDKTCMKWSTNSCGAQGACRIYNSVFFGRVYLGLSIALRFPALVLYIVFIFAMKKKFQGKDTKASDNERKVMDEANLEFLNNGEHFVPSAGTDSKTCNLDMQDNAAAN

CYP1A2 = CYP1A2 (Homo sapiens, UniProt P05177); test: Effect of voxelotor on PK of CYP1A2 probe substrate caffeine in healthy subjects; type: in vivo
Sequence of CYP1A2 (P05177 whole entry): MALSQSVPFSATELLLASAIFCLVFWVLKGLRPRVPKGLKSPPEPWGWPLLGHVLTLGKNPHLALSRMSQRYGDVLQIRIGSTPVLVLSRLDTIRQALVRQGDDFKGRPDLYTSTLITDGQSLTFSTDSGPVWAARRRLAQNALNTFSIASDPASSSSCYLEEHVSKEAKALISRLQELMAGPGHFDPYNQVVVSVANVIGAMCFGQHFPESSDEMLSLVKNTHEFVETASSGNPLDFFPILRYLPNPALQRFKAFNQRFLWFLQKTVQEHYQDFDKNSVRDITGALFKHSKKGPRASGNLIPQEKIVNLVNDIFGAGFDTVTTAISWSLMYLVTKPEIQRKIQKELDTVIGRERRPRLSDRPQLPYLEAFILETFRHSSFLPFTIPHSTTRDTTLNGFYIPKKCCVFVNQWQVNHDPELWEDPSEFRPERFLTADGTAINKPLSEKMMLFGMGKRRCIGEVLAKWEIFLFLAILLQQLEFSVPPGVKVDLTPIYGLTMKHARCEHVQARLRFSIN
Description: as §1, §2

[3] = Excretion after administration of radiolabeled voxelotor; type: in vivo
Excerpt: Following the administration of radiolabeled voxelotor, approximately 62.6% of the dose and its metabolites are excreted into feces (33.3% unchanged) and 35.5% in urine (0.08% unchanged).

rat = test: Rat Comet assay; type: in vivo
Excerpt: Voxelotor was not genotoxic in the reverse mutation bacterial (Ames) test, rat Comet assay, or rat micronucleus assay.

pregnant rabbits = test: Embryo-fetal development study in pregnant rabbits; type: in vivo, rabbit
Description: In embryo-fetal development studies, voxelotor was administered orally to pregnant rats at 15, 50, and 250 mg/kg/day (gestation days 7 through 17) and rabbits at 25, 75, and 150 mg/kg/day (gestation days 7 through 19) through organogenesis.

BSEP = BSEP (Homo sapiens, UniProt O95342); test: In vitro transporter studies: BSEP; type: in vitro ADME
Sequence of BSEP (O95342 whole entry): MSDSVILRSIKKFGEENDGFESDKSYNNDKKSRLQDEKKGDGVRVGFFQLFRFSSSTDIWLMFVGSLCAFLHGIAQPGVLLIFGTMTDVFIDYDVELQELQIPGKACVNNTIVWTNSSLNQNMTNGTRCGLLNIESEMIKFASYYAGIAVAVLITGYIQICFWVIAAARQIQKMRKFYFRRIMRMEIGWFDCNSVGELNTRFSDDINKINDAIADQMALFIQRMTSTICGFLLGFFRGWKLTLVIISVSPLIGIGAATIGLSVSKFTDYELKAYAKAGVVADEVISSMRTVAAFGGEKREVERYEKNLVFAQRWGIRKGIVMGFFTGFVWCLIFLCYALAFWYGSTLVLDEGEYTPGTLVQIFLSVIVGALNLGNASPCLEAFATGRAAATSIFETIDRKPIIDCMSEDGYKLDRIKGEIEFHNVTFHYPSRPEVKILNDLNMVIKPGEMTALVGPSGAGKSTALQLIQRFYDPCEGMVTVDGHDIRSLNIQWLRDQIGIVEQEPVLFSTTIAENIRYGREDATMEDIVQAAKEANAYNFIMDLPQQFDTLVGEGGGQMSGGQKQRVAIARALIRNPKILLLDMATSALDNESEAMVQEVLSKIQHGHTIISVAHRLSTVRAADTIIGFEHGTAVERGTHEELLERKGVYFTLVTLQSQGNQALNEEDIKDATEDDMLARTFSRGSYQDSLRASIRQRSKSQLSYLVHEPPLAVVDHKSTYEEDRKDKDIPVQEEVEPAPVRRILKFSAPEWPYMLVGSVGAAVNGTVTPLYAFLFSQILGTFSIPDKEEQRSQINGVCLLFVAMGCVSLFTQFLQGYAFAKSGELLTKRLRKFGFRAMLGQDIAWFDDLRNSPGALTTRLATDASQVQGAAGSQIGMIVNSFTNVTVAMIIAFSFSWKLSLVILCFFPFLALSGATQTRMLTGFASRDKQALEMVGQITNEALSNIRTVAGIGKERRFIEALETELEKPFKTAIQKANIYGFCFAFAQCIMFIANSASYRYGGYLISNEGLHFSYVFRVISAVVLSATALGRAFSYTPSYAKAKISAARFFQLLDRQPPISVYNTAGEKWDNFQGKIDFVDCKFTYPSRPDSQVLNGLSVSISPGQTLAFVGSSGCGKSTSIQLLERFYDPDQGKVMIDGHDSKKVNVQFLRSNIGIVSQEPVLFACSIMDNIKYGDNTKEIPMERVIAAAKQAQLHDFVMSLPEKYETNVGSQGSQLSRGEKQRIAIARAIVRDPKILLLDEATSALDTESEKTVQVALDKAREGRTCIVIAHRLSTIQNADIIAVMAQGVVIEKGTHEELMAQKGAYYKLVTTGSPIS

CYP2C19 = target: T1, CYP2C19 (Homo sapiens, UniProt P33261); test: Effect of voxelotor on PK of CYP2C19 probe substrate omeprazole in healthy subjects; type: in vivo
T1 construct: endogenous in cells; host or cells: healthy subjects, in vivo
T1 sequence (P33261 whole entry): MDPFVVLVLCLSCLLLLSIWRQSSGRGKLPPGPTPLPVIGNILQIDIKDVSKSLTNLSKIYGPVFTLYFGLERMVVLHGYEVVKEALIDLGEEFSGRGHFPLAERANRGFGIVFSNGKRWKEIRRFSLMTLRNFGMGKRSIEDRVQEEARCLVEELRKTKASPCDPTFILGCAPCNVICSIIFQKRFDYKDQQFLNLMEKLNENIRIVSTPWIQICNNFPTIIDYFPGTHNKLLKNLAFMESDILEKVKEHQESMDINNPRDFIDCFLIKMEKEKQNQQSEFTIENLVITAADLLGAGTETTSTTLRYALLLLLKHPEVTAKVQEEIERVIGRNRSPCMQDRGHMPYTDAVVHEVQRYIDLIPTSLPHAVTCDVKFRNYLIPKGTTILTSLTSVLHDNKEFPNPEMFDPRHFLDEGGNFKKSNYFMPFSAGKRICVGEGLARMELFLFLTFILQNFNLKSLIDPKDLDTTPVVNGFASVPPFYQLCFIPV
Description: as §1, §2

[4] = PK in specific populations (age, sex, body weight, pediatric, renal impairment); type: in vivo, human
Description: The pharmacokinetic parameters of voxelotor were similar in pediatric patients 12 to <17 years and adults.
Following a single 900 mg dose of voxelotor, whole blood exposures in subjects with severe renal impairment (eGFR<30 mL/min/1.73 m^2) were 25% lower compared to healthy controls.
OXBRYTA has not been evaluated in patients with end stage renal disease requiring dialysis.

[5] = healthy subjects, multiple doses of voxelotor 900/600 mg QD

Sequence of BCRP (Q9UNQ0 whole entry): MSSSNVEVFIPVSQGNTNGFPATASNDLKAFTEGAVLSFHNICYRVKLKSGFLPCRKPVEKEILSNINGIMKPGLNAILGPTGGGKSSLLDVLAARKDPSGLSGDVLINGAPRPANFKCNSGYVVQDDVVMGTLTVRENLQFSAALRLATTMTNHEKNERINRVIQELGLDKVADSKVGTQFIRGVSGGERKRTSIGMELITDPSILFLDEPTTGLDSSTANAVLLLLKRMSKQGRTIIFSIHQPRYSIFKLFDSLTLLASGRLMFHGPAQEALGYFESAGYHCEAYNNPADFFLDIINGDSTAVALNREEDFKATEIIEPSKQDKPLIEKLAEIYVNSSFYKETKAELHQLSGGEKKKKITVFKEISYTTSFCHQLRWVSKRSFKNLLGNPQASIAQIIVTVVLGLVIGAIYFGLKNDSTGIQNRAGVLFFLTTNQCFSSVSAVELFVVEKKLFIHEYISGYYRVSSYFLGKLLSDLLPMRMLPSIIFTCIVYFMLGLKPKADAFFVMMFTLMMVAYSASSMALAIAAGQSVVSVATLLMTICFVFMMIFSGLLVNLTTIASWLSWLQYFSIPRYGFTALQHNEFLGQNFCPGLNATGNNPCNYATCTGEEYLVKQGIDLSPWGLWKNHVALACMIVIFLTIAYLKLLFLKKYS
Sequence of CYP2B6 (P20813 whole entry): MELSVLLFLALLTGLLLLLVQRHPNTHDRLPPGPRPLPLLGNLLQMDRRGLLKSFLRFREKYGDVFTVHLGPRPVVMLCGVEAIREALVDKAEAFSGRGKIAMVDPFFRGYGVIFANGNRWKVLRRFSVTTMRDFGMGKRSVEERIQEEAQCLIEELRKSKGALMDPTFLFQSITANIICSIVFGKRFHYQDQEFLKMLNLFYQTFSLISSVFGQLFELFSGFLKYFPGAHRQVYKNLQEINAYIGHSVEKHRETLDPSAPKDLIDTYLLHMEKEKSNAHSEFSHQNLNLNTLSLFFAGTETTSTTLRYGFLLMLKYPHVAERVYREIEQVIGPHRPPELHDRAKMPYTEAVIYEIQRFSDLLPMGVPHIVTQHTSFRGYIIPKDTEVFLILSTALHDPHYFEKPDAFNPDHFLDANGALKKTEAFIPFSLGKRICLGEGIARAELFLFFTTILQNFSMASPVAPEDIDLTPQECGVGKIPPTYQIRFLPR

## CC(C)n1nccc1-c1ncccc1COc1cccc(O)c1C=O [voxelotor, 2-hydroxy-6-((2-(1-isopropyl-1H-pyrazol-5-yl)pyridin-3-yl)methoxy)benzaldehyde]
CYP2B6
  induction of CYP2B6: inducer
  inhibition of CYP2B6: reversible and time-dependent inhibitor
BCRP
  inhibition of BCRP: not an inhibitor
  substrate of BCRP: not a substrate
CYP3A4
  enzymes mediating oxidation of voxelotor: mediated primarily by CYP3A4
[1]; all hepatic function groups
  deaths, SAEs, AEs leading to discontinuation: No deaths, other serious adverse events (SAEs), and no AEs leading to discontinuation of the study were reported
[1]; mild hepatic impairment, 4 of 7 subjects
  subjects reporting mild TEAEs: 57.1%
[1]; moderate hepatic impairment, 1 of 7 subjects
  subjects reporting a moderate TEAE: 14.3%
[1]; moderate hepatic impairment, 1500 mg, 5 of 7 subjects
  subjects with TEAE of diarrhea (mild): 71.4%
[1]; moderate hepatic impairment, 5 of 7 subjects
  subjects reporting mild TEAEs: 71.4%
[1]; normal hepatic function, 1500 mg
  TEAEs: No TEAEs were reported
[1]; overall, 7 events in 7 subjects
  subjects with diarrhea (most frequently reported TEAE): 25%
[1]; overall, 11 subjects, 17 TEAEs
  subjects reporting TEAEs: 39.3%
[1]; overall, seven subjects, 8 TEAEs
  subjects with TEAEs possibly/probably related to study drug: 25.0%
[1]; severe hepatic impairment, 600 mg, 1 of 7 subjects
  subjects reporting a mild TEAE and a moderate TEAE: 14.3%
[1]; single oral dose 1500 mg (mild, moderate, normal) or 600 mg (severe hepatic impairment)
  safety and tolerability: safe and well tolerated
[2]
  safety and tolerability: safe and well tolerated
OATP1B3
  inhibition of OATP1B3: not an inhibitor
  substrate of OATP1B3: not a substrate
CYP1A2; [5]
  effect of voxelotor on PK of CYP1A2 probe substrate (caffeine): no clinically meaningful effect
CYP1A2; human, in vivo
  inhibition of CYP1A2 in vivo: not
[3]
  dose and its metabolites excreted in urine: 35.5%
  dose and its metabolites excreted into feces: approximately 62.6%
  dose excreted unchanged in urine: 0.08%
  dose excreted unchanged into feces: 33.3%
rat
  genotoxicity: not genotoxic
Pregnant rabbits; pregnant rabbits, oral 25, 75, 150 mg/kg/day, gestation days 7 through 19
  adverse developmental outcomes: no adverse developmental effects; also recorded: no evidence of adverse developmental outcomes
Pregnant rabbits; rabbits, 150 mg/kg/day
  exposure at highest dose level (maternal toxicity observed) relative to exposure in patients at the recommended daily dose: 0.3 times
BSEP
  inhibition of BSEP: not an inhibitor
  substrate of BSEP: not a substrate
CYP2C19; [5]
  effect of voxelotor on PK of CYP2C19 probe substrate (omeprazole): no clinically meaningful effect
CYP2C19; human, in vivo
  inhibition of CYP2C19 in vivo: not
[4]; in vivo
  differences in pharmacokinetics based on age (12 to 59 years), sex, body weight (28 to 135 kg), or mild to severe renal impairment (CLcr 15-89 mL/min): No clinically significant differences
  effect of renal function on the excretion of voxelotor: no clinically significant effect
  pharmacokinetic parameters in pediatric patients 12 to <17 years vs adults: similar
[4]; severe renal impairment (eGFR<30 mL/min/1.73 m^2), single 900 mg dose
  whole blood exposures lower compared to healthy controls: 25%
[4]; severe renal impairment, single 900 mg dose
  unbound plasma concentrations vs healthy controls: comparable
